Experimental data from patent US12042655B2, “Systems for detecting catheter movement” (Cardionomic, Inc., priority 2017, dated 2024).

Test system: normal, non-HF ovine model
Experiment: Change in right and left ventricle contractility after injection, with max(dP/dt) pressure as surrogate and heartbeat-by-heartbeat RV/LV correlation
Type: in vivo
Conditions: max(dP/dt) used as surrogate for contractility
Excerpt: The correlation was a heartbeat-by-heartbeat analysis. Pressure measurements, taken by a Millar catheter comprising a MEMS pressure sensor, in units of max(dP/dt) was used as a surrogate for contractility. The first change, a dobutamine injection, provided a very high contractility increase greater than 500%. The average correlation between right ventricle contractility and left ventricle contractility was very good at 0.91, where 1.00 is a perfect correlation. Accordingly, if a subject is given a dobutamine injection, measuring changes to right ventricle contractility can provide accurate information about changes to left ventricle contractility. The first change was repeated three times. The second change, calcium injection at 5 mL, provided a contractility increase of about 20%. […] The average correlation between right ventricle contractility and left ventricle contractility using a Millar (MEMS) sensor on a catheter was very good at 0.91. The average correlation between right ventricle contractility and left ventricle contractility using a fluid-filled lumen of a Swan-Ganz catheter in communication with an external pressure sensor was also very good at 0.87. Accordingly, under certain circumstances such as measurement of an animal (normal, non-HF ovine model) model, if a subject is given a calcium injection, measuring changes to right ventricle contractility with a MEMS sensor or a fluid filled lumen can provide accurate information about changes to left ventricle contractility.

Row | Compound | Contractility % Increase [%] | Contractility % Increase (listed as dobutamine injection) | Contractility % Increase (listed as calcium injection)
1 | CC(CCc1ccc(O)cc1)NCCc1ccc(O)c(O)c1 (stereo not shown) [Dobutamine Injection, dobutamine] | >500 | greater than 500% | –
2 | calcium [Calcium Injection] | ~20 | – | about 20%
